In US6103728A, “Quinazolines” (Sugen, Inc., priority 1997, dated 2000):
pIC50: −log10 of the molar value.

What was measured:
Type in all cases: cell-based
HER2 = target: T1, HER2 (Homo sapiens, UniProt P04626); assay: HER2-ELISA, whole cell HER2 activity in BT474 cells; conditions: BT474 human breast tumor cells; serum-free; 2 h drug preincubation
T1 construct: a human breast tumor cell line which expresses high levels of HER2 kinase; endogenous in cells; host or cells: BT-474 human breast tumor cells
Excerpt: (§1) The following examples illustrates the ability of the exemplary compounds to inhibit receptor tyrosine kinases, such as HER2 and/or EGFR. The following target cells were used for cellular kinase assays: NIH3T3 clone C7 (Honegger et al., supra) engineered to over-express human EGF receptor; NIH3T3 cells engineered to over-express a chimeric receptor containing the EGFR extracellular domain and the HER2 intracellular kinase domain; the human mammary carcinoma line BT474 (ATCC ATB2) expressing HER2; and the human glioblastoma line U1242 that expresses PDGFR-beta. Growth assays were carried out using human mammary epithelial SKBR3 (ATCC HTB30) cells (SKBR3 cells over-express HER2), SKOV3 (ATCC HTB77) human ovarian cancer cell line (SKOV3 cells also over-express HER2), A431 cells (A431 cells over-express EGFR) MCF7 human breast carcinoma cells, MCF7 cells overexpressing the HER2 kinase (MCF7-HER2), NIH3T3 cells, and NIH3T3 cells overexpressing the HER2 kinase (3T3-HER2.
HER2-BT474 assays measuring whole cell HER2 activity was carried out as described below:
1) The cell line used in this assay is BT-474 (ATCC HBT20), a human breast tumor cell line which expresses high levels of HER2 kinase.
2) BT-474 is grown in an incubator with 5% CO2 at 37° C. The growth media is RPMI+10% FBS+GMS-G (Gibco supplement)+Glutamine.
3) A monoclonal anti-HER2 antibody is used in ELISA. […]

[1] = test system: chimeric receptor containing the EGFR extracellular domain and the HER2 intracellular kinase domain; assay: EGFR-HER2 chimeric receptor whole cell kinase assay in NIH3T3 cells (ELISA); conditions: NIH3T3 cells with EGFR/HER2 chimeric receptor; 100 nM EGF; 2 h drug incubation; read-out: ELISA DATA HER2 - (3T3)
Excerpt: as §1
EGFR-HER2 Chimeric Recetor
HER2 kinase activity (EGFR-3T3) in whole cells was measured as described below:
The materials and reagents are identical to these used in example 1, the EGFR whole cell kinase assay.
A. Coat ELISA plates (Corning, 96 well, Cat. #25805-96) with 05-101 antibody at 0.5 µg per well in PBS, 100 μl final volume/well, and store overnight at 4° C. […]

PDGFR-beta = target: T2, PDGFR-beta (Homo sapiens, UniProt P09619); assay: PDGF-R Cellular Assay (ELISA); conditions: human glioblastoma line U1242; PDGF-BB 100 ng/ml
T2 construct: the human glioblastoma line U1242 that expresses PDGFR-beta; endogenous in cells; host or cells: U1242 (U1242 MG) human glioblastoma cells
Excerpt: as §1, with “(3T3-HER2. […]” for “(3T3-HER2.”

IGF-1 Receptor = target: T3, IGF-1 Receptor (Homo sapiens, UniProt P08069); assay: Cellular IGF-1 Receptor ELISA (3T3/IGF-1R cells); conditions: 20 nM IGF-1, serum-free, 2 h drug incubation
T3 construct: expressed in transfected cells; host or cells: 3T3 cells (3T3/IGF-1R)

EGFR = target: T4, EGFR (Homo sapiens, UniProt P00533); assay: EGFR Whole Cell Kinase Assay (EGFR-3T3 assay, ELISA); conditions: NIH3T3 clone C7 over-expressing human EGF receptor; 25 nM EGF
T4 construct: expressed in transfected cells; host or cells: NIH3T3 clone C7 (EGFR/C7)
Excerpt: as §1
EGFR Whole Cell Kinase Assay
EGFR kinase activity (EGFR-3T3 assay) in whole cells was measured as described below:
A. Coat ELISA plates (Corning, 96 well, Cat. #25805-96) with 05-101 antibody at 0.5 μg per well in PBS, 150 μl final volume/well, and store overnight at 4° C. Coated plates are good for up to 10 days when stored at 4° C. […]

T3 sequence (P08069 31-1367): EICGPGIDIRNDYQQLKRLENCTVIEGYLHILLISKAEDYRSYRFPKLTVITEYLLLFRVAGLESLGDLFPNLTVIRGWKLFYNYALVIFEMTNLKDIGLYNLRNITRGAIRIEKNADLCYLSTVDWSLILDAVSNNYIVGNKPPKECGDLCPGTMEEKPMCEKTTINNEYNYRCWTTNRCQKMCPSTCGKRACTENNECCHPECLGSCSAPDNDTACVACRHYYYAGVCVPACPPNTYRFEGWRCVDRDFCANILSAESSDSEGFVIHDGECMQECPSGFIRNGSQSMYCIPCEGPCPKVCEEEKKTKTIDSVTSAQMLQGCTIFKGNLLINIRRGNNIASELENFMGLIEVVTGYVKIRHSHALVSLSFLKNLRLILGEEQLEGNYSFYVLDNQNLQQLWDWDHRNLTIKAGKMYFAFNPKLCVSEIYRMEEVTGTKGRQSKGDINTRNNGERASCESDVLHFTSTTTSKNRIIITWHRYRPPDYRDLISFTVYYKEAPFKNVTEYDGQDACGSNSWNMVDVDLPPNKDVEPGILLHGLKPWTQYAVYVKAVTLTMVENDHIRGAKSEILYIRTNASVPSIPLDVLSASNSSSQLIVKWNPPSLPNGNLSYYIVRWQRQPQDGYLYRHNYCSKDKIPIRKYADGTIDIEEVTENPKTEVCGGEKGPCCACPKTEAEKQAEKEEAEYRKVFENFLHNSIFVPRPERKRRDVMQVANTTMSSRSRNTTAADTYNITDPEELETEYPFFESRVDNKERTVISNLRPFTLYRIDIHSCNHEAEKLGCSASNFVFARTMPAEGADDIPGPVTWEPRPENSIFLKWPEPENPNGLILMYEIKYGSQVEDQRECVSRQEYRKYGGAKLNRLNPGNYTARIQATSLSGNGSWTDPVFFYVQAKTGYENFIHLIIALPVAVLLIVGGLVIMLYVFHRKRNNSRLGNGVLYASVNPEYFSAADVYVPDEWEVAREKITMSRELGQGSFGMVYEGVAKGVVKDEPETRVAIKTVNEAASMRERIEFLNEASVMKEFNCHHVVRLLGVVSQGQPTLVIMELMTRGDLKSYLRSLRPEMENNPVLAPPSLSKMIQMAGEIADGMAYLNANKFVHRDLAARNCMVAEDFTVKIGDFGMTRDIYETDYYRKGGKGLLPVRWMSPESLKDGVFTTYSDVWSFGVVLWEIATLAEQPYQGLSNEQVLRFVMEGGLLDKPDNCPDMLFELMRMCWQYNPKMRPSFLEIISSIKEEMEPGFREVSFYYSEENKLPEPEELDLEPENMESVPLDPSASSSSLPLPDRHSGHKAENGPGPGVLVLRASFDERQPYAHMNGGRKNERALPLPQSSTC
T2 sequence (P09619 33-1106): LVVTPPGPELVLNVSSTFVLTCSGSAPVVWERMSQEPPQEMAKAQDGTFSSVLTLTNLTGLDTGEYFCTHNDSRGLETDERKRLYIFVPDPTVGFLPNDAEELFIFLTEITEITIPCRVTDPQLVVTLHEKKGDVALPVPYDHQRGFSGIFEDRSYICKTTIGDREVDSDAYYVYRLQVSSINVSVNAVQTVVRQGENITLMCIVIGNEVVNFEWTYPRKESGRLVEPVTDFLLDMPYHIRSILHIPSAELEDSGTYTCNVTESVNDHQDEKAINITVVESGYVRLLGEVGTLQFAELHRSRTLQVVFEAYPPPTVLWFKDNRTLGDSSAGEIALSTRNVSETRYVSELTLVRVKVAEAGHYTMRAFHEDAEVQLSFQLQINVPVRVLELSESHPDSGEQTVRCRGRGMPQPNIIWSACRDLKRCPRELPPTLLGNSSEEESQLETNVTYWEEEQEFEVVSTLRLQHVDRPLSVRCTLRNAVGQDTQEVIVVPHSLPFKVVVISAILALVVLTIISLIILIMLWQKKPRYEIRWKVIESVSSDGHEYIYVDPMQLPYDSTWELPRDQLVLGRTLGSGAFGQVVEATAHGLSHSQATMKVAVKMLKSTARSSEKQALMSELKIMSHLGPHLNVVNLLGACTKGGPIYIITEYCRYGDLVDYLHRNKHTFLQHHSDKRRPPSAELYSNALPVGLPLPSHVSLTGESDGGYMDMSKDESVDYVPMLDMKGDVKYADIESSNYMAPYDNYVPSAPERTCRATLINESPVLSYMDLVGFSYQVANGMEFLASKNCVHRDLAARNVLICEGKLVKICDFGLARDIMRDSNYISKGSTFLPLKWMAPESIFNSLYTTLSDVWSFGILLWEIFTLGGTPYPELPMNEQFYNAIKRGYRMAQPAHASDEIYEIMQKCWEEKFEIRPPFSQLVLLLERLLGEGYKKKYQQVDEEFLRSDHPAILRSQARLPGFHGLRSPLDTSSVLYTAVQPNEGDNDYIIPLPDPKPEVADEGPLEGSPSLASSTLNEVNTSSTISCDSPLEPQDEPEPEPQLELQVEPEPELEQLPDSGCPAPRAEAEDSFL
T4 sequence (P00533 25-1210): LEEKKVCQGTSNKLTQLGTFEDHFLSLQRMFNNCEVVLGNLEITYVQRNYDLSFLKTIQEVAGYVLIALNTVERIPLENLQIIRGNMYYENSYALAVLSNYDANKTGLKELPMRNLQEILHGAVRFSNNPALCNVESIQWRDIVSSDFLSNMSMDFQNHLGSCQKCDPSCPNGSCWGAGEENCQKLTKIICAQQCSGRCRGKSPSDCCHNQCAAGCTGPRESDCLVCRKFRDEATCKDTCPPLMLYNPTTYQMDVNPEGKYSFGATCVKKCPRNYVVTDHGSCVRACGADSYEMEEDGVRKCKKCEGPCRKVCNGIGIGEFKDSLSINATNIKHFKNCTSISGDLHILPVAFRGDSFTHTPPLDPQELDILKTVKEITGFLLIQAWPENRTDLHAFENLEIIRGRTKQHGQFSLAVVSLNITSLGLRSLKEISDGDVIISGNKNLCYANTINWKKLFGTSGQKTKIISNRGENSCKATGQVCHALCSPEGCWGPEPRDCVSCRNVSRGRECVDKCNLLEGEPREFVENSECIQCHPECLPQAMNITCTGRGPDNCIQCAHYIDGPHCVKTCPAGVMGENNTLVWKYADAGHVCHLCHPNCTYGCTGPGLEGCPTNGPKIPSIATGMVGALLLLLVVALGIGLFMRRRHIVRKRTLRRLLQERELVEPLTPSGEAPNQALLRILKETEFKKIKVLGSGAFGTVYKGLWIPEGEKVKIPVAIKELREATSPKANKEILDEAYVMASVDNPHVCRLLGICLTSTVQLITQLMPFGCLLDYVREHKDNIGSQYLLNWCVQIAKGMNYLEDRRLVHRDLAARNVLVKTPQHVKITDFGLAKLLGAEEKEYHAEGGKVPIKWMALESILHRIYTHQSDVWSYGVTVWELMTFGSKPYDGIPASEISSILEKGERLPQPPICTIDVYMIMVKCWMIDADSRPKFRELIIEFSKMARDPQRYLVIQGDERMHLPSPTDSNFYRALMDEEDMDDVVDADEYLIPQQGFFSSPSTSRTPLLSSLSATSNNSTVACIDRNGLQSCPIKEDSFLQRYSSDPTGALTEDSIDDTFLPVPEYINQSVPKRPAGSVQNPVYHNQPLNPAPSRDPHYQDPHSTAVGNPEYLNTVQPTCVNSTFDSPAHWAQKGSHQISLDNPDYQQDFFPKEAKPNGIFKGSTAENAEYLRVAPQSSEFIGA
T1 sequence (P04626 23-1255): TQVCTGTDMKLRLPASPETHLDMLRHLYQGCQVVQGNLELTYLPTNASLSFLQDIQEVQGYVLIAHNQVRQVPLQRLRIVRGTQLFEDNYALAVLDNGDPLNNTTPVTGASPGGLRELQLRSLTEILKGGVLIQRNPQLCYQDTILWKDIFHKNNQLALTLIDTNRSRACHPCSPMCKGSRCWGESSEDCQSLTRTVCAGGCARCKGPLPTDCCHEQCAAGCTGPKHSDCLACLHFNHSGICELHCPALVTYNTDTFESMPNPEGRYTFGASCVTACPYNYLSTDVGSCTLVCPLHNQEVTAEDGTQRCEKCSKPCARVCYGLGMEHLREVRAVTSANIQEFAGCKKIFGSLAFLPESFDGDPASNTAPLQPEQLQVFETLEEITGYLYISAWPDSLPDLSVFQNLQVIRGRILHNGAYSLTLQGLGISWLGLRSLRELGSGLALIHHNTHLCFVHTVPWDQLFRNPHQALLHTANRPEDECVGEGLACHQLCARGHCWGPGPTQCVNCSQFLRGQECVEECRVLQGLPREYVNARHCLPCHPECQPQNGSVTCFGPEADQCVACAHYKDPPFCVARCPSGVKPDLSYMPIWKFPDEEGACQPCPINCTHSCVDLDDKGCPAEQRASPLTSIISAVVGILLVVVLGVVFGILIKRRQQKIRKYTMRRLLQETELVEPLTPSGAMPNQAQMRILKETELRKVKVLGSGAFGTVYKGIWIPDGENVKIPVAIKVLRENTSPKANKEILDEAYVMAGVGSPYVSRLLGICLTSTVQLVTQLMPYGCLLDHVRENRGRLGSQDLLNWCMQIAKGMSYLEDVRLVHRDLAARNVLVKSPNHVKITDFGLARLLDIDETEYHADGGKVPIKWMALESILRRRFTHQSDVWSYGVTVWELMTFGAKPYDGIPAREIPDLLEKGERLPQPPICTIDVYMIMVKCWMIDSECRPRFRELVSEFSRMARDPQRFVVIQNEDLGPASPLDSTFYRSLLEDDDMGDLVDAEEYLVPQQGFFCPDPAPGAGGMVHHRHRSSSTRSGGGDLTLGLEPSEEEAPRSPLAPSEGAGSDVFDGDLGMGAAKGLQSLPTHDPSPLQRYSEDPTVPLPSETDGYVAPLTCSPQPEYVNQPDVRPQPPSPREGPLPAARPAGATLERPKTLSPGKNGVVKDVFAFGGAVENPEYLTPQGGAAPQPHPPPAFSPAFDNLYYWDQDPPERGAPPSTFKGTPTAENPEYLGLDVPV

For COC(=O)C(c1cccc(Br)c1)c1ncnc2cc(OC)c(OC)cc12 (centres unmarked) [Compound D002], the pIC50 (HER2) was less than 4.00, the pIC50 [1] was less than 4.30 and the pIC50 (PDGFR-beta) was less than 4.00. It also gave a pIC50 (IGF-1 Receptor) of less than 4.30 and a pIC50 (EGFR) of less than 4.00.
